{
  "source": "patent US20260166016A1",
  "about": "“GPR139 RECEPTOR AGONIST, PREPARATION METHOD THEREFOR, AND APPLICATION THEREOF” (NEUBO APPTECH CO., LTD., priority 2022, published 2026)",
  "key": {"GPR139": {"target": "T1, GPR139 (Homo sapiens, UniProt Q6DWJ6)", "T1 construct": "expressed in transfected cells; host or cells: HEK293", "T1 sequence (Q6DWJ6 1-353)": "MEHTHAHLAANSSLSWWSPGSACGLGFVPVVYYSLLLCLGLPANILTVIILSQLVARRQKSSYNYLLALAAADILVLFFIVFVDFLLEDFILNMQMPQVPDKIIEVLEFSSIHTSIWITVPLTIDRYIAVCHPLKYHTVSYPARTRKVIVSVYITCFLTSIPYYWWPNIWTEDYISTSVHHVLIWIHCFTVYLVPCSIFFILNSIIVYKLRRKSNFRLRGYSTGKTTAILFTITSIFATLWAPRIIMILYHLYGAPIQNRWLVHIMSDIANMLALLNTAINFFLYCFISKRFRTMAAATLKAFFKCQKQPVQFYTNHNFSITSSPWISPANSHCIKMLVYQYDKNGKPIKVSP", "assay": "GPR139 FLIPR cell calcium signal detection in GPR139-transfected HEK293 cells", "format": "cell-based", "details": "HEK293 cells transfected with GPR139, read-out: EC50 values of compounds for GPR139", "protocol": "HEK293 cells were grown in a 10 cm culture dish containing DMEM complete medium (containing glutamine, sodium pyruvate, penicillin/streptomycin, 10% fetal bovine serum) and incubated at 37° C. in a 5% CO2 incubator until 90% confluency. Then subculture twice a week at a ratio of 1:5. During cell passaging, the culture medium was first completely removed, washed once with 4 mL of DPBS, and then 3 mL of trypsin digestion solution was added and mixed well. When cell dissociation was observed, the trypsin solution was aspirated and 5 mL of complete DMEM medium was added. The cells were dispersed by pipetting, and 1 mL of cell suspension was added to each of five new 10 cm culture dishes. Then, 7 mL of complete DMEM medium was supplemented to each dish. After mixing, the cells were cultured at 37° C. in a 5% CO2 incubator.\nOn the transfection day, cells were digested and seeded into one 10 cm culture dish at appropriate density. 6 mL of DMEM/F12 medium (containing glutamine, sodium pyruvate, HEPES, and fetal bovine serum) was added, and the cells were cultured for 5 hours at 37° C. in 5% CO2. A 50 mL sterile centrifuge tube (Tube A) was taken, and 1 mL of serum-free DMEM/F12 medium (containing glutamine, sodium pyruvate, and HEPES) was added, followed by 10 μg of GPR139 DNA. The mixture was mixed well. Another 50 mL sterile centrifuge tube (Tube B) was taken, and 1 mL of serum-free DMEM medium (containing glutamine, sodium pyruvate, and HEPES) was added, followed by 60 μL of Fugene HD transfection reagent. The mixture was mixed well. 1 mL of Fugene HD transfection reagent from Tube B was transferred to Tube A, mixed well, and incubated at room temperature for 20 minutes. 2 mL of DMEM/F12 medium (containing glutamine, sodium pyruvate, HEPES, and fetal bovine serum) was added to Tube A. After mixing, 4 mL of mixture from Tube A was transferred to the prepared 10 cm dish (total volume 10 mL). The cells were cultured for 20-24 hours at 37° C. in 5% CO2.\nThe next day, the transfected cells were digested with trypsin digestion solution, and appropriate DMEM/F12 medium (containing glutamine, sodium pyruvate, HEPES, penicillin/streptomycin, fetal bovine serum) was added. The cells were seeded into Matrigel coated 384-well plates with a cell density of 6.67×10^6 cells/mL, 30 μL/well. The 384-well plates were cultured at 37° C. in 5% CO2.\nOn the third day, 10 μL/well of FLIPR dye (diluted in HEPES solution containing Pluronic and Probenecid) was added to the 384-well cell plate. And the plate was incubated for 40 minutes at 37° C. in 5% CO2. Diluted compounds were added to the cell plate and calcium signals were measured using a FLIPR plate reader.\nData were analyzed using XL-fit software to obtain EC50 values for each compound."}, "[1]": {"tested_on": "LPS induced mouse depression model", "assay": "LPS induced mouse depression model, Open Field Test", "format": "in vivo", "details": "gavage 2.5 mg/mL at 0.1 mL/10 g twice daily Day 1-4, test 6 hours after injection, FIGS. 6 and 7", "from_the_text": "(§1) Mice: Male Crl: CD1 (ICR) mice; 10-14 weeks old; Weight: 35-40 g; Quantity: 40 pieces\n(§2) Group 1, placebo+saline group: 10 mice; divided into 2 cages, 5 mice per cage.\n(§3) Group 2, placebo+lipopolysaccharide (LPS) group: 10 mice; divided into 2 cages, 5 mice per cage.\n(§4) Group 3, compound NRB181+saline group: 10 mice; divided into 2 cages, 5 mice per cage.\n(§5) Group 4, compound NRB181+lipopolysaccharide (LPS) group: 10 mice; divided into 2 cages, 5 mice per cage.\n(§6) 21.3.1 Preparation of placebo before experiment: 0.5% CMC sodium+1% Tween80+saline. In a clean bench, 4 tubes of 40 mL placebo were prepared using pyrogen-free centrifuge tubes and ultrapure water, totaling 160 mL, ensuring the absence of endotoxins (LPS). Sterile and endotoxin free centrifuge tubes were used to divide […] of placebo into 4 mL/tube, for a total of 30 tubes, and stored at 4° C. for future use.\n(§7) LPS with a purity of >98% was required 3.2 mg of LPS was accurately weighed and dissolved in 40 mL of placebo to prepare a sterile solution of 0.08 mg/mL. […]\n21.3.13 On the afternoon of the Day 4 of the experiment, 6 hours after mice in Group 1 were injected with saline, an Open Field Test was conducted on each group starting from Group 1. Relevant parameters were recorded, and then the mice in each group were returned to their respective home cages."}, "[2]": {"tested_on": "metabolic enzymes of pentobarbital sodium", "assay": "LC-MS detection of pentobarbital sodium content in anesthetized mice (pilot experiment)", "format": "in vivo, mouse", "details": "pentobarbital sodium content in mice by LC-MS, placebo vs compound", "from_the_text": "In addition, to determine whether compound NRB181 has an effect on the metabolic enzymes of pentobarbital sodium, we used LC-MS method to detect the pentobarbital sodium content in mice anesthetized with pentobarbital sodium under placebo and compound action in the pilot experiment."}, "[3]": {"tested_on": "LPS induced mouse depression model", "assay": "LPS induced mouse depression model, body weight", "format": "in vivo", "details": "male CD1 (ICR) mice; gavage 2.5 mg/mL at 0.1 mL/10 g twice daily Day 1-4; LPS i.p. Day 4; weighed Day 5; FIG. 4", "from_the_text": "as §1, §2, §3, §4, §5, §6, §7\n21.3.4 On the first day of the experiment at 8:00 am, four groups of mice were randomly divided into groups, and the weight of each mouse was recorded before being placed back in their respective cages. […]\n21.3.14 On the Day 5 of the experiment at 9:00 am, each group of mice was weighed and recorded, and then were returned to their home cages."}, "[4]": {"tested_on": "LPS induced mouse depression model", "assay": "LPS induced mouse depression model, corticosterone level", "format": "in vivo", "details": "gavage 2.5 mg/mL at 0.1 mL/10 g twice daily Day 1-4, blood collected Day 5, FIG. 8", "from_the_text": "as §1, §2, §3, §4, §5, §6\nLPS with a purity of >98% was required 3.2 mg of LPS was accurately weighed and dissolved in 40 mL of placebo to prepare a sterile solution of 0.08 mg/mL. After thorough mixing, the solution was divided into sterile and endotoxin-free centrifuge tubes, 4 mL per tube. The LPS solution needed for the next day was stored at 4° C. (3 tubes), while the rest was frozen at −20° C. for future use. […]"}},
  "note": "pEC50: −log10 of the molar value.",
  "data": [
    {"smiles": "C[C@H](NC(=O)CNC(=O)c1cc(Cl)ccn1)c1c(F)cccc1F", "note": "[NRB181]", "values": [
      {"measurement": "pEC50", "setting": "GPR139", "value": "7.00 to 10.00"},
      {"measurement": "activity of mice in the Open Field Test (number of line crossings, total distance traveled)", "setting": "[1]", "value": "significantly increased the activity"},
      {"measurement": "effect on the metabolic enzymes of pentobarbital sodium", "setting": "[2]", "value": "no effect"},
      {"measurement": "weight loss (body weight changes)", "setting": "[3]", "value": "significantly alleviate weight loss"},
      {"measurement": "expression level of corticosterone", "setting": "[4]", "value": "significantly reduce the expression level of corticosterone"}
    ]}
  ]
}
